Source: patent US9732063B2, “Kinase inhibitors” (RESPIVERT LIMITED, priority 2012, dated 2017)

Experiments:
[1] = biological target: GSK3α (Homo sapiens (Human), UniProt P49840); assay: GSK 3α enzyme inhibition (Z-LYTE FRET, Method 2); format: biochemical
Protocol: (§1) The enzyme inhibitory activities of compounds disclosed herein are determined by FRET using synthetic peptides labelled with both donor and acceptor fluorophores (Z-LYTE, Invitrogen Ltd., Paisley, UK).
The inhibitory activities of compounds of the invention against the GSK 3α enzyme isoform (Invitrogen), are evaluated by determining the level of activation/phosphorylation of the target peptide. The GSK3-α protein (500 ng/mL, 2.5 μL) is mixed with the test compound (2.5 μL at either 4 μg/mL, 0.4 μg/mL, 0.04 μg/mL, or 0.004 μg/mL) for 2 hr at RT. The FRET peptide (8 μM, 2.5 μL), which is a phosphorylation target for GSK3α, and ATP (40 μM, 2.5 μL) are then added to the enzyme/compound mixture and the resulting mixture incubated for 1 hr. Development reagent (protease, 5 μL) is added for 1 hr prior to detection in a fluorescence microplate reader (Varioskan® Flash, ThermoFisher Scientific).
(§2) In all cases, the site-specific protease cleaves non-phosphorylated peptide only and eliminates the FRET signal. Phosphorylation levels of each reaction are calculated using the ratio of coumarin emission (donor) over fluorescein emission (acceptor), for which high ratios indicate high phosphorylation and low ratios indicate low phosphorylation levels.

[2] = system: PBMCs; assay: LPS-induced TNFα/IL-8 release in PBMC cells; format: cell-based; conditions: Homo sapiens, read-out: IC50 Values for Inhibition of Cytokine Release PBMCs IL-8
Protocol: Peripheral blood mononuclear cells (PBMCs) from healthy subjects are separated from whole blood using a density gradient (Lymphoprep, Axis-Shield Healthcare). The PBMCs are seeded in 96 well plates and treated with compounds at the desired concentration for 2 hours before addition of 1 ng/mL LPS (Escherichia Coli O111:B4 from Sigma Aldrich) for 24 hours under normal tissue culture conditions (37° C., 5% CO2). The supernatant is harvested for determination of IL-8 and TN Fa concentrations by sandwich ELISA (Duo-set, R&D systems) and read on the fluorescence microplate reader (Varioskan® Flash, ThermoFisher Scientific).

[3] = system: PBMCs; assay: IL-2 and IFN gamma release in CD3/CD28 stimulated PBMC cells; format: cell-based; conditions: Homo sapiens
Protocol: PBMCs from healthy subjects are separated from whole blood using a density gradient (Lymphoprep, Axis-Shield Healthcare). Cells are added to a 96 well plate pre-coated with a mixture of CD3/CD38 monoclonal antibodies (0.3 μg/mL eBioscience and 3 μg/mL BD Pharmingen respectively). Compound at the desired concentration is then added to the wells and the plate left for 3 days under normal tissue culture conditions. Supernatants are harvested and IL-2 and IFN gamma release determined by Sandwich ELISA (Duo-set, R&D System). The IC50 is determined from the dose response curve.

[4] = biological target: c-Src (Homo sapiens (Human), UniProt P12931); assay: c-Src enzyme inhibition (Z-LYTE FRET); format: biochemical
c-Src, sequence (P12931 whole entry, looked up): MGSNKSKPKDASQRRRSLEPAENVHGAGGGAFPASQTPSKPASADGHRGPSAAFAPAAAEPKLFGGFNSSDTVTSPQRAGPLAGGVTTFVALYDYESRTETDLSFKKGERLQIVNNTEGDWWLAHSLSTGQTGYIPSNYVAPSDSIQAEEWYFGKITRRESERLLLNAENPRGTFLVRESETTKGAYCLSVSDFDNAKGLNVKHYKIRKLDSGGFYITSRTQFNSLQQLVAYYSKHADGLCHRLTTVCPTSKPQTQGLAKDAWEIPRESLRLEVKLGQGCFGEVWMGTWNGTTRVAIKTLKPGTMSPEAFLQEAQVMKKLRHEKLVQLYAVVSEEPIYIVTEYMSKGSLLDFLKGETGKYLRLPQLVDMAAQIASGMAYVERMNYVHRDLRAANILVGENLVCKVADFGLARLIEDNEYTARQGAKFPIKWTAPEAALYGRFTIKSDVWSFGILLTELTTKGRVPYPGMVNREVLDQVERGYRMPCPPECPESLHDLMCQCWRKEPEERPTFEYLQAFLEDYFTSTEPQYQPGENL
Protocol: as §1
(§3) The relevant enzyme (3000 ng/mL or 2000 ng/mL respectively, 2.5 μL) is incubated with the test compound (either 4 μg/mL, 0.4 μg/mL, 0.04 μg/mL, or 0.004 μg/mL, 2.5 μL each) for 2 hr at RT. The FRET peptides (8 μM, 2.5 μL), and appropriate ATP solutions (2.5 μL, 800 μM for c-Src, and 60 μM ATP for Syk) are then added to the enzymes/compound mixtures and incubated for 1 hr. Development reagent (protease, 5 μL) is added for 1 hr prior to detection in a fluorescence microplate reader (Varioskan® Flash, ThermoFisher Scientific).
as §2

[5] = biological target: p38 MAPKα (Homo sapiens (Human), UniProt Q16539); assay: p38 MAPKα enzyme inhibition (Z-LYTE FRET, Method 2); format: biochemical
p38 MAPKα, sequence (Q16539 whole entry): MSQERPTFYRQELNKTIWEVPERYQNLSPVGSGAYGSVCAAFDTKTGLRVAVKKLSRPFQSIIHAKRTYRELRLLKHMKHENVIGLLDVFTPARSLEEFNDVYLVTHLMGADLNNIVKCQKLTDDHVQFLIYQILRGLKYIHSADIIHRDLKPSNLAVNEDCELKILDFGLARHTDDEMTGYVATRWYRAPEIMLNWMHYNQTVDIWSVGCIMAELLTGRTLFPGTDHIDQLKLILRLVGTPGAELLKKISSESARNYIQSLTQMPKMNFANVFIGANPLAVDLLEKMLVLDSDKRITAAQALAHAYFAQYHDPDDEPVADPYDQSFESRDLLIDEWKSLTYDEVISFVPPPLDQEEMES
Protocol: as §1
The inhibitory activities of test compounds against the p38 MAPKα isoform (MAPK14: Invitrogen), are evaluated indirectly by determining the level of activation/phosphorylation of the down-stream molecule, MAPKAP-K2. The p38 MAPKα protein (80 ng/mL, 2.5 μL) is mixed with the test compound (2.5 μL of either 4 μg/mL, 0.4 μg/mL, 0.04 μg/mL or 0.004 μg/mL) for 2 hr at RT. […] The mixture is incubated for 1 hr at RT. Development reagent (protease, 5 μL) is added for 1 hr prior to detection in a fluorescence microplate reader (Varioskan® Flash, ThermoFisher Scientific).
as §2

[6] = biological target: Syk (Homo sapiens (Human), UniProt P43405); assay: Syk enzyme inhibition (Z-LYTE FRET); format: biochemical
Protocol: as §1, §3, §2

[7] = read-out: IC50 Values for Inhibition of Cytokine Release PBMCs IL-2
[8] = read-out: IC50 Values for Inhibition of Cytokine Release PBMCs IFNγ

GSK3α, sequence (P49840 whole entry): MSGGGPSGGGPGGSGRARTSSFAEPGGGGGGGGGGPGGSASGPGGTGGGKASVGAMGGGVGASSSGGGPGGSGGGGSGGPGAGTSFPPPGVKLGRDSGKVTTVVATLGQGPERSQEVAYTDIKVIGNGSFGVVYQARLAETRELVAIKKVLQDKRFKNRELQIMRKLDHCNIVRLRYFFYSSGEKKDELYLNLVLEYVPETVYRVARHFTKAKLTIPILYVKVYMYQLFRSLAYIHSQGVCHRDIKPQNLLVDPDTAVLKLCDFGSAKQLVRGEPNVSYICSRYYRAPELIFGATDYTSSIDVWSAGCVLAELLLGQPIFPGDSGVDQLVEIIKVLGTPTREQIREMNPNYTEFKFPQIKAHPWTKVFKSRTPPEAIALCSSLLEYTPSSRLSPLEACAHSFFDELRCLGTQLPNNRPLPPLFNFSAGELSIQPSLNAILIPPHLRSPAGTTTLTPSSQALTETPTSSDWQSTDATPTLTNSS

Row | SMILES | IC50 [1] [nM] | IC50 [2] [nM] | IC50 [3, 7] [nM] | IC50 [4] [nM] | IC50 [5] [nM] | IC50 [6] [nM] | IC50 [3, 8] [nM]
1 | COc1cc(Nc2nccc(Oc3ccc(NC(=O)Nc4cc(C(C)C)nn4-c4ccc(C)cc4)c4ccccc34)n2)cc(OCCN2CCOCC2)c1 [Example 17, 1-(3-Isopropyl-1-(P-tolyl)-1H-pyrazol-5-yl)-3-(4-((2-((3-methoxy-5-(2-morpholinoethoxy)-phenyl)amino)pyrimidin-4-yl)oxy)naphthalen-1-yl)urea] | 2670 | 1.1 | 20.3 | > 383 | > 280 | > 537 | –
2 | COc1cc(Nc2nccc(Oc3ccc(NC(=O)Nc4cc(C(C)C)nn4-c4ccc(C)cc4)c(Cl)c3Cl)n2)cc(S(=O)(=O)C2CC2)c1 [Example 23, 1-(2,3-Dichloro-4-((2-((3-(cyclopropylsulfonyl)-5-methoxyphenyl)amino)pyrimidin-4-yl)-oxy)phenyl)-3-(3-isopropyl-1-(p-tolyl)-1H-pyrazol-5-yl)urea] | 1400 | 2.6 | – | 53 | – | 289 | –
3 | COCCOCCOCCOCCOc1cc(Nc2nccc(Oc3ccc(NC(=O)Nc4cc(C(C)C)nn4-c4ccc(C)cc4)c4ccccc34)n2)cc(OC)c1 [Example 29, 1-(4-((2-((3-(2,5,8,11-Tetraoxatridecan-13-yloxy)-5-methoxyphenyl)amino)pyrimidin-4-yl)oxy)naphthalen-1-yl)-3-(3-isopropyl-1-(p-tolyl)-1H-pyrazol-5-yl)urea] | > 10000 | 2.5 | 74.1 | 6 | 30 | 16 | 6.6
4 | COCCOCCOCCOCCOCCOc1cc(Nc2nccc(Oc3ccc(NC(=O)Nc4cc(C(C)C)nn4-c4ccc(C)cc4)c4ccccc34)n2)cc(OC)c1 [Example 30, 1-(4-((2-((3-(2,5,8,11,14-Pentaoxahexadecan-16-yloxy)-5-methoxyphenyl)amino)-pyrimidin-4-yl)oxy)naphthalen-1-yl)-3-(3-isopropyl-1-(p-tolyl)-1H-pyrazol-5-yl)urea] | 7230 | 2.1 | 27.3 | 4 | 32 | 12 | 15.2
5 | COCCOCCOCCOCCOCCOCCOCCOc1cc(Nc2nccc(Oc3ccc(NC(=O)Nc4cc(C(C)C)nn4-c4ccc(C)cc4)c4ccccc34)n2)cc(OC)c1 [Example 32, 1-(4-((2-((3-(2,5,8,11,14,17,20-Heptaoxadocosan-22-yloxy)-5-methoxyphenyl)amino)-pyrimidin-4-yl)oxy)naphthalen-1-yl)-3-(3-isopropyl-1-(p-tolyl)-1H-pyrazol-5-yl)urea] | 4690 | 1.4 | – | 3 | 11 | 7 | –
6 | COc1cc(Nc2nccc(Oc3ccc(NC(=O)Nc4cc(C(C)(C)C)nn4-c4ccc(C)cc4)c4ccccc34)n2)cc(OCCOCCOCCN(C)C)c1 [Example 57, 1-(3-(tert-Butyl)-1-(p-tolyl)-1H-pyrazol-5-yl)-3-(4-((2-((3-(2-(2-(2-(dimethylamino)ethoxy)ethoxy)ethoxy)-5-methoxyphenyl)amino)pyrimidin-4-yl)oxy)naphthalen-1-yl)urea] | 1940 | 0.9 | 14.6 | 7 | – | 8 | 1.4
7 | COCCOCCOc1cc(Nc2nccc(Oc3ccc(NC(=O)Nc4cc(C(C)(C)C)nn4-c4ccc(C)cc4)c4ccccc34)n2)cc(OC)c1 [Example 60, 1-(3-(tert-Butyl)-1-(p-tolyl)-1H-pyrazol-5-yl)-3-(4-((2-((3-methoxy-5-(2-(2-methoxyethoxy)ethoxy)phenyl)amino)pyrimidin-4-yl)oxy)naphthalen-1-yl)urea] | > 10000 | 2.2 | 72.6 | 17 | – | 30 | 3
